Data on 1 substance can be found in US9765115B2, “Inhibitors of metastasis, methods of generating such inhibitors and their therapeutic applications” (Board of Supervisors of Louisiana State University acting …, priority 2011, dated 2017).

Assay [1] relates to PC-3CTRΔESS cells. Description: Matrigel in vitro invasion assay. As to conditions: 50 nM CT, 48 h. In kind it is cell-based. As to the method:
(§1) Invasion experiments were conducted in Matrigel™ invasion chambers as previously described (Sabbisetti et al., 2005).
(§2) CT increases invasiveness, and even induces an invasive phenotype in non-invasive prostate cancer cells. The role of PDZ-binding motif in CT-stimulated invasion was examined. FIG. 2C depicts CTR-C PDZ-binding motif mutation and effects on cell invasion. PC-3V, PC-3 CTRwt and PC-3 CTRΔESS cells were added to upper insert of invasion chambers with or without 50 nM CT, and cells that passed through the Matrigel™ barrier were counted after 48 h. The results are expressed as mean number of invaded cells per 400× field ±SEM (n=6; *p<0.05 (PC-3V v PC-3CTR-wt); $ p<0.05 (PC-3CTR-wt v PC-3CTRΔESS); $$-p<0.05 (PC-3CTRwt+CT v PC-3CTRΔESS+CT) (one-way ANOVA and Newman-Keul's test)). Expression of CTRwt in PC-3 cells increased invasion by 2.5-fold (FIG. 2C).

The next assay has as its system PC-3-CTR-wt cells. The assay can be described thus: Matrigel in vitro invasion assay. In kind it is cell-based. As to conditions: 50 nM CT, 48 h. The method, then: as §1, §2
As shown above, CTR binds to ZO-1 through PDZ interaction (i.e. PDZ ligand on C-tail of CTR binds to the PDZ domain of ZO-1). To attenuate this binding, ZO-1 was saturated with a small C-terminal peptide of CTR sequence containing the PDZ-binding motif. Since ZO-1 is an intracellular membrane protein, the interfering peptide was delivered inside the plasma membrane. It has been shown that trans-activating transcriptional activator (TAT) protein (86-mer polypeptide) from HIV-1 enters mammalian cells when added to the surrounding media (Frankel et al., 1988; Green et al., 1989). Certain small regions of such proteins (10-16-mers) called protein transduction domains (PTDs), also efficiently traverse biological membranes (Elliott et al., 1997). Therefore, a fusion peptide Pep 1 was synthesized of TAT-peptide sequences of HIV virus and CTR-C(N-[…]-C (SEQ ID NO:2), CTR-C sequence underlined). The first experiment was to see if Pep I binds to ZO-1 in reversible fashion. For this, amino acid Y in Pep I was labeled with ^125I, and the binding with ZO-1 analyzed in the presence/absence of unlabeled Pep I (1000×; 20 μM). PC-3CTR-ZO-1-MYC cells were first incubated with unlabeled Pep I or control peptide (20 μM) for 5 min. The cells were then incubated with ^125I-pep I or C for 25 min. The cells were then washed in IP buffer, treated with DSP, and lysed. ZO-1 IPs were obtained, fractionated on SDS-PAGE, and autoradiographed. […] Next, whether Pep I competes with CTR for ZO-1 binding was tested. For this, PC-3-CTR-wt cells were treated with CT (50 nM) and or Pep I (50 μM) for 15 min. The CTR IPs were then immunoblotted and probed for ZO-1 immunoreactivity. […] Next, the biological impact of this phenomenon was examined by testing the effect of Pep I on CTR-stimulated invasion.
The binding of ZO-1 and CTR can be attenuated by saturating ZO-1 with a small C-terminal peptide of CTR sequence containing the PDZ ligand. Since ZO-1 is an intracellular membrane protein, the interfering peptide must penetrate plasma membrane to interact with ZO-1. As discussed above, fusion peptides of small TAT peptides (12-mer) and six (Pep I) or eight amino acids (Pep II) of C-terminal of CTR were synthesized. Control peptides were TAT peptides (12-mer) containing random amino acid sequence of equivalent size (6-mer). […] Thus, these two peptides (sequences given below) could be used therapeutically to attenuate or inhibit metastasis in cancerous cells.

Assay [2] deals with PC-3CTRΔESS cells. The assay can be described thus: Transepithelial electric resistance (TER). In kind it is cell-based. As to the method: (§3) Cells were plated on Transwell filters (0.4 μm pore size) and grown to confluency in complete medium (RPMI1640 containing 10% fetal bovine serum, 20 mM HEPES and antibiotics). TER of the cultures (in duplicate wells) was measured at several time intervals with EVOM volt-ohm meter as previously described (Shah et al, 2009). The readings were corrected for blank (TER values from the filter in bathing medium). The integrity and cell density of monolayers were carefully monitored.
(§4) To examine the effect of calcitonin (CT) on tight junctions (TJs), the transepithelial electric resistance (TER) of polarized PC-3 cells expressing either the vector (PC-3V), CTRwt or CTRΔESS was monitored for 8 hours after CT stimulation (FIG. 2A). Polarized PC-3V, PC-3 CTRwt and PC-3 CTR-ΔESS cells were serum-starved for 4 hours, then treated with or without 50 nM CT. TER was measured with EVOM volt-ohm meter, and results expressed as Ωcm^2±SEM (n=6). […] Since PC-3 cells secrete CT, the expression of CTRwt may have activated CT-CTR axis causing almost 40% reduction of TER in PC-3CTRwt cells.

In another assay the test system is PC-3V cells. The assay can be described thus: Transepithelial electric resistance (TER). In kind it is cell-based. To be noted: 50 nM CT. As to the method: as §3, §4
Another assay has as its system PC-3CTRwt cells. The assay can be described thus: Cell adhesion on culture dishes. In kind it is cell-based. As to conditions: 50 nM CT, 1 hour. As to the method: Confluent cultures of PC-31-CTR cells were tested for cell adhesion after treatment with diluent (C), CT (50 nM), mPKI (myristoylated PKA inhibitory peptide (100 nM) or mPKI+CT. The number of adherent cells was determined by absorbance after 1 hour and are shown in the right graph.
To understand the significance of CT-induced, PKA-dependent disassembly of TJs in PC cell adhesion and invasion, the action of CT was examined on TER, PCP, cell adhesion and invasion in PC-3CTRwt cells in the presence/absence of mPKI. […] Similarly, mPKI abrogated the actions of CT on PCP and invasion (FIGS. 20B and 20C respectively). Next, the adhesion of PC-3CTRwt cells was examined on culture dishes.

The test system of assay [3] is UMUC3, RT4, A2780, OVCAR8 and A549 cancer cell lines. Description: Transepithelial electric resistance (TER) in other cancer cell lines. In kind it is cell-based, human. As to the method: as §3
Next, whether CTR destabilizes tight junctions and increases invasion in these cancers was tested by examining the effect of CT on transepithelial electric resistance (TER), paracellular permeability (PCP) and invasion in cancer cell lines derived from bladder cancer (UMUC3 and RT4), ovarian cancer (A2780 and OVCAR8), and lung cancer (A549). Prostate cancer cell line PC-3CTR was used a reference line. […] This was further confirmed by the actions of CT on PCP (FIG. 26A) and cell invasion (FIG. 26B). […] The role of CT-CTR axis is to destabilize junction complexes and increase invasion in cancers as diverse as prostate, bladder, lung and ovarian cancers.

Regarding calcitonin [CT], in the assay with PC-3CTRΔESS cells [1], the increase in invasion entry is “did not”. Also, the “additional increase in invasion” value in the assay with PC-3-CTR-wt cells is on record as 2.5 fold. Moreover, the TER entry with PC-3CTRΔESS cells [2] (50 nM CT) is on record as “did not affect TER”; in the assay on PC-3V cells, “did not alter it”; in assay [3] (with CT, all these cell lines) it was “decreased TER”. In the assay on PC-3CTRΔESS cells [2] (all CT concentrations), the “TER at multiple CT concentrations” value is recorded as “did not show any changes”. Besides, in the assay with PC-3CTRwt cells, the “adhesion of the cells to plastic matrix” value is “remarkable decline”. Also, the “response to CT” value is “responded extremely well” in assay [3] (aggressive cell lines); “responded poorly” in assay [3] (well-differentiated lines RT4 and OVCAR8).
